Measurements from US20210139610A1, “COMPOSITIONS AND METHODS FOR MEDIATING EPS” (priority 2018, published 2021).
Entries after “also recorded” stand apart in the source; their conditions may differ.

Key:
[1] = system: Z-DNA and B-DNA in the NTHI biofilm extracellular matrix; assay: Immunofluorescence CLSM for Z-DNA / B-DNA in NTHI biofilms; type: cell-based, Non-typeable Haemophilus influenzae; conditions: HMGB1 treatment at 24 h, read at 40 h
Experimental: FIG. 31: DNase degrades B-DNA, but not Z-DNA, within the biofilm extracellular matrix. DNase (Pulmozyme; 5 units) was added at 24 h after biofilm seeding to in vitro pre-formed NTHI biofilms.
FIG. 37: HMGB1 destabilizes Z-DNA structures in the biofilm extracellular matrix. Non-typeable Haemophilus influenzae biofilms were grown in supplemented BHI media in 8 well chambered coverglass slides at 37° C. and 5% CO2. After 24 h, biofilms were treated as indicated above. After 40 h, biofilms were washed, probed with primary antibodies directed against Z-DNA (light gray dots), a fluorescent secondary antibody, stained with DAPI (gray regions), and visualized via fluorescence microscopy.
FIGS. 50A-50B: Equilibrium shift of B-DNA to Z-DNA conversion alters biofilm formation. NTHI biofilms formed for 24 h were incubated with cerium chloride (CeCl3) or chloroquine for an additional 16 h and were probed with naive or anti-Z-DNA (white) by immunofluorescence CLSM.
FIGS. 51A-51B: Equilibrium shift of B-DNA to Z-DNA conversion alters biofilm formation. NTHI biofilms formed for 24 h were incubated with cerium chloride (CeCl3) (FIG. 51A) or chloroquine (FIG. 51B) for an additional 16 h. Z-DNA was measured by IF and CLSM using anti-Z-DNA and cells were stained with the membrane stain FM4-64. Bars represent the SEM. Statistical significance compared to control was assessed by paired t-tests, *P<0.05, **P<0.01.

poly(dG-dC) substrate = poly(dG-dC) substrate nuclease degradation (gel electrophoresis); type: biochemical; conditions: in presence of protective concentrations of spermidine/polyamines
Experimental: FIG. 32: Z-DNA formation protects DNA from nuclease degradation. A poly(dG-dC) substrate was incubated with salt activated nuclease (SAN) or DNase I in increasing concentrations of NaCl, spermine, or spermidine as indicated above. Degradation products were visualized by gel electrophoresis. High salt and polyamines protect DNA from degradation through conversion to the Z-DNA form.
FIGS. 34A-34B: DNABII proteins protect DNA by shifting to Z-DNA form. (FIG. 34A) A poly(dG-dC) substrate was incubated with DNase I in increasing concentrations of NTHi HU as indicated above. Degradation products were visualized by gel electrophoresis. […] (FIG. 34B) Top: Circular dichroism spectrum of a B-DNA substrate being converted to Z-DNA by increasing concentrations of a Z-DNA catalyst (adapted from Rahmouni (1992) Mol Microbiol. 6(5):569-72). Note inversion of negative peak around 250 nm and positive peak around 280 nm. Bottom: Poly(dGdC) DNA (5 μg) was incubated with HU (15 μM) for 2 h and CD spectra collected.
FIG. 41: HMGB1 reverts polyamine-induced Z-DNA to a nuclease sensitive B-DNA state. A poly(dG-dC) substrate was incubated with spermidine and HMGB1. Degradation products were visualized by gel electrophoresis.

DNABII proteins = DNABII proteins in NTHI biofilm and culture media (immunofluorescence, Western blot); type: cell-based, Non-typeable Haemophilus influenzae; conditions: HMGB1 treatment at 24 h, read at 40 h
Experimental: FIGS. 38A-38C: HMGB1 displaces DNABII proteins thereby disrupting NTHI biofilms. Non-typeable Haemophilus influenzae biofilms were grown in supplemented BHI media in 8 well chambered coverglass slides at 37° C. and 5% CO2. After 24 h, biofilms were treated as indicated. (FIG. 38A) After 40 h, biofilms were washed, probed with primary antibodies directed against DNABII proteins (light gray dots), a fluorescent secondary antibody, stained with DAPI (gray regions), and visualized via fluorescence microscopy. (FIG. 38B) Media from biofilm cultures was collected and analyzed via Western blot with a primary antibody that recognizes DNABII proteins. […] (FIG. 38C) COMSTAT quantification NTHI biofilms stained with LIVE/DEAD® and visualized with confocal microscopy after treatment with 5 mg/mL HMGB1.

[2] = system: NTHI biofilms in the middle ear; assay: Chinchilla model of otitis media due to NTHI, middle ear biofilm scoring; type: in vivo; conditions: 5 μg to middle ears at 4 and 5 days post infection, scored 24 h later
Experimental: FIGS. 39A-39B: HMGB1 promotes biofilm resolution in an experimental model (chinchilla host) of OM. Diluent or 5 μg rHMGB1 or mHMGB1 were delivered directly to middle ears of chinchillas at 4 and 5 days post infection with NTHI. Animals were sacrificed 24 h later, and their middle ears were imaged (FIG. 39A) and blindly scored (FIG. 39B) based on the criteria described in the bottom of (FIG. 39A). Bars represent SEM. ***P<0.001.

B. cenocepacia biofilms = assay: Burkholderia cenocepacia in vitro biofilm disruption (COMSTAT); type: cell-based; conditions: 5 mg/mL HMGB1 at 24 h, total 40 h
Experimental: (§1) (FIG. 40A) B. cenocepacia biofilms were grown in LB media in 8 well chambered coverglass slides at 37° C. and 5% CO2. After 24 h, biofilms were treated 5 mg/mL HMGB1. After a total of 40 h, biofilms were stained with LIVE/DEAD®, visualized via CLSM and analyzed by COMSTAT. Bars represent the SEM. (FIG. 40B) C57BL/6 mice were infected with 10^7 CFU i.t., and simultaneously received 5 mg rHMGB1 or mHMGB1, a C45 S non-inflammatory variant. Aggregates of B. cenocepacia were visible by fluorescence microscopy in sections probed with an α-B. cenocepacia antibody (gray). After 18 h, (FIG. 40C) CFUs were quantified in BAL. Bars represent SD. *P<0.05, ***P<0.001.

B. cenocepacia = assay: Mouse lung infection with B. cenocepacia (aggregates, CFU in BAL); type: in vivo, C57BL/6 mice; conditions: 10^7 CFU i.t. with simultaneous 5 mg rHMGB1 or mHMGB1, 18 h
Experimental: as §1

preformed NTHI biofilms = assay: Disruption of pre-formed NTHI biofilms (treatment after initial growth; LIVE/DEAD, CLSM, COMSTAT); type: cell-based, Non-typeable Haemophilus influenzae; conditions: 5 mg/mL HMGB1, treated at 24 h
[3] = system: Non-typeable Haemophilus influenzae biofilms; assay: NTHI in vitro biofilm formation, additive present from seeding (LIVE/DEAD, CLSM, COMSTAT); type: cell-based; conditions: for NTHI biofilm formation (average thickness, biomass): DCHA 50 μM
Experimental: FIG. 14: Non-typeable Haemophilus influenzae biofilms were grown for 40 h in supplemented BHI medium containing additives as indicated below each bar in 8 well chambered coverglass slides at 37° C. and 5% CO2. Biofilms were washed, stained with LIVE/DEAD®, fixed, and imaged by CLSM. Biofilm parameters were quantified using COMSTAT software.
Dicyclohexylamine inhibits spermidine synthase via a competitive inhibition mechanism, i.e. through binding to the same site on the protein as the putrescine substrate. Applicants therefore hypothesized that dicyclohexylamine would inhibit NTHi biofilm development. […]

[4] = system: Non-typeable Haemophilus influenzae; assay: NTHI growth (absorbance at 490 nm, colony-forming units); type: cell-based; conditions: 16 h, supplemented BHI, up to 10 mM
Experimental: FIG. 13: Non-typeable Haemophilus influenzae were grown for 16 h in supplemented BHI media containing additives as indicated above in 96 well plates at 37° C. and 5% CO2. Growth was quantified by spectrophotometric absorbance at 490 nm (left) and by enumeration of colony-forming units (right).
(§2) Dicyclohexylamine inhibits spermidine synthase via a competitive inhibition mechanism, i.e. through binding to the same site on the protein as the putrescine substrate. Applicants therefore hypothesized that dicyclohexylamine would inhibit NTHi biofilm development.

[5] = system: spermidine in the NTHI biofilm matrix; assay: Immunofluorescence for spermidine in NTHI biofilm matrix; type: cell-based, Non-typeable Haemophilus influenzae; conditions: grown 40 h in presence of DCHA
Experimental: FIG. 15: Non-typeable Haemophilus influenzae biofilms were grown for 40 h in supplemented BHI media containing additives as indicated above in 8 well chambered coverglass slides at 37° C. and 5% CO2. Biofilms were washed, probed with primary antibodies directed towards spermidine, a fluorescent secondary antibody (dark gray dots), and stained with DAPI (gray regions).
as §2

[6] = system: spermidine levels in UPEC biofilms; type: cell-based
[7] = system: eDNA scaffold structure of NTHI biofilms; assay: eDNA scaffold structure in early (3 h) NTHI biofilms, dsDNA immunofluorescence; type: cell-based, Non-typeable Haemophilus influenzae; conditions: DCHA 50 μM
Experimental: FIGS. 3A-3C: Polyamine synthesis inhibitor reduces biofilm formation. (FIG. 3A) COMSTAT quantification of LIVE/DEAD® stained NTHI biofilms grown in the presence of dicyclohexylamine (DCHA, 50 μM), a spermidine (Spd) synthase inhibitor, Spd (1 mM), or both. Bars represent the SEM. Statistical significance compared to control was assessed by unpaired t-tests, *P<0.05. […] (FIG. 3B) Immunofluorescence microscopy images of eDNA scaffold structure in NTHI in vitro biofilms grown for 3 h in the presence of DCHA (50 μM). […] (FIG. 3C) Immunofluorescence CLSM images of NTHI in vitro biofilms grown for 40 h in the presence of DCHA. Probed for Spd (white dots in FIG. 3C lower panel) and counterstained with DAPI (gray regions).
FIG. 16: Surface attached non-typeable Haemophilus influenzae were grown for 3 h in supplemented BHI media containing additives as indicated above in Fluorodish coverglass dishes at 37° C. and 5% CO2. Biofilms were washed, probed with primary antibodies directed towards double stranded DNA and a fluorescent secondary antibody (white).
as §2

[8] = 50 μM dicyclohexylamine, 40 h, COMSTAT
[9] = listed as Dicyclohexylamine (DCHA)
[10] = listed as dicyclohexylamine (DCHA)
[11] = listed as spermidine synthase inhibitor

HMGB1: high mobility group box 1 protein, eukaryotic chromatin protein of 215 amino acids
Z-DNA content of NTHI biofilm matrix [1]: diminished Z-DNA content; also recorded: reduced Z-DNA structures in the biofilm matrix | nuclease sensitivity of poly(dG-dC) substrate (poly(dG-dC) substrate): restored nuclease sensitivity to spermidine-induced Z-DNA substrates | DNABII proteins in / released from the biofilm matrix (DNABII proteins): DNABII proteins were released from the biofilm; also recorded: displaced DNABII proteins from the biofilm matrix | resolution of middle ear NTHI biofilms [2]: efficient resolution of adherent biofilms; also recorded: promoted clearance of pre-existing NTHI biofilms in situ | B. cenocepacia biofilm disruption in vitro (B. cenocepacia biofilms): effective at disrupting biofilms formed in vitro by Burkholderia cenocepacia; also recorded: disrupts Burkholderia cenocepacia biofilms | B. cenocepacia aggregate biofilm in lungs (B. cenocepacia): prevented B. cenocepacia aggregate biofilm formation in the lungs of mice; also recorded: significantly disrupts B. cenocepacia biofilms in situ | NTHI biofilm disruption (preformed NTHI biofilms): significant biofilm disruption; also recorded: disrupts biofilms by displacing DNABII proteins

C1CCC(NC2CCCCC2)CC1 [dicyclohexylamine]
biofilm roughness ([3]; 50 μM dicyclohexylamine, 40 h): increasing biofilm roughness | reduction of biofilm biomass [3, 8]: approximately 40% | reduction of biofilm thickness [3, 8]: approximately 40% | NTHI biofilm formation (average thickness, biomass) [3]: significantly inhibited NTHi biofilm formation | NTHI biofilm formation (average thickness, biomass) ([3]; listed as DCHA): inhibited biofilm biogenesis in vitro, decreasing average thickness and biomass; also recorded: Average thickness of biofilms was decreased | NTHI biofilm formation (average thickness, biomass) ([3]; listed as Dicyclohexylamine): inhibited biofilm biogenesis | NTHI biofilm formation (average thickness, biomass) [3, 9]: significantly decreased average thickness compared to sBHI control | NTHI biofilm formation (average thickness, biomass) [3, 10]: a significant decrease in biofilm average thickness | NTHi growth [4]: did not affect NTHi growth up to 10 mM | NTHi growth ([4]; listed as DCHA): did not affect NTHI growth | NTHi growth [4, 11]: did not affect normal growth | spermidine / polyamine presence in NTHI biofilm matrix [5]: statistically significant corresponding decrease in spermidine present in the biofilm matrix | spermidine / polyamine presence in NTHI biofilm matrix ([5]; listed as DCHA): reduced extracellular polyamine incorporation into the biofilm EPS; also recorded: inhibits polyamine incorporation into the biofilm EPS | spermidine / polyamine presence in NTHI biofilm matrix [5, 9]: reduces spermidine levels in NTHI and UPEC biofilms | spermidine / polyamine presence in NTHI biofilm matrix [5, 10]: an overall decrease in spermidine levels as measured by IF | spermidine / polyamine presence in NTHI biofilm matrix [5, 11]: reduced spermidine presence in the biofilm matrix | spermidine levels in UPEC biofilms [6]: reduces spermidine levels in NTHI and UPEC biofilms | eDNA scaffold structure amount and complexity ([7]; listed as DCHA): inhibited production of the eDNA scaffold; also recorded: eDNA scaffold structure production is greatly reduced | eDNA scaffold structure amount and complexity ([7]; listed as Dicyclohexylamine): reduced the amount and the complexity of eDNA scaffold structures | eDNA scaffold structure amount and complexity [7, 11]: reduced both the presence and complexity of the extracellular DNA structure
